According to the supplement of paper PMC10307832:

Key:
Experiment in all cases: relative viability (nuclei count vs DMSO), 5 days (fraction); higher = more cells survive
[1] = test system: 201T
Outline: (§1)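 Relative viability equals treated-well nuclei counts divided by vehicle-well nuclei counts. Counts came from 4× images of lung cancer cell lines grown in 1536-well plates for 5 days after pin-tool dosing on the day after seeding. Dosing used one drug alone or a fixed anchor-drug dose plus five library-drug doses (not always all listed) in √10 steps, and values are medians of duplicate plates.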

[2] = test system: A-427
Outline: as §1

[3] = test system: BEN
Outline: as §1

[4] = test system: COR-L 105
Outline: as §1

[5] = test system: COR-L23
Outline: as §1

[6] = test system: EKVX
Outline: as §1

[7] = test system: EMC-BAC-2
Outline: as §1

[8] = test system: HCC-15
Outline: as §1

[9] = test system: HCC-366
Outline: as §1

[10] = test system: HCC-78
Outline: as §1

[11] = test system: HOP-62
Outline: as §1

[12] = test system: LK-2
Outline: as §1

[13] = test system: NCI-H1563
Outline: as §1

[14] = test system: NCI-H1734
Outline: as §1

[15] = test system: NCI-H1915
Outline: as §1

[16] = test system: NCI-H1993
Outline: as §1

[17] = test system: NCI-H2405
Outline: as §1

[18] = test system: NCI-H460
Outline: as §1

[19] = test system: NCI-H522
Outline: as §1

[20] = test system: NCI-H647
Outline: as §1

[21] = test system: NCI-H661
Outline: as §1

[22] = test system: PC-14
Outline: as §1

[23] = test system: SK-MES-1
Outline: as §1

CN1CCN(CCOc2cc(OC3CCOCC3)c3c(Nc4c(Cl)ccc5c4OCO5)ncnc3c2)CC1 [Saracatinib] + Cc1nc(Nc2ncc(C(=O)Nc3c(C)cccc3Cl)s2)cc(N2CCN(CCO)CC2)n1 [Dasatinib] (partner 0.075 µM)
relative viability ([1]; first compound 0.02 µM): 0.602 | relative viability ([1]; first compound 0.2 µM): 0.567 | relative viability ([1]; first compound 0.6325 µM): 0.57 | relative viability ([1]; first compound 2 µM): 0.489 | relative viability ([2]; first compound 0.02 µM): 0.658 | relative viability ([2]; first compound 0.2 µM): 0.652 | relative viability ([2]; first compound 0.6325 µM): 0.691 | relative viability ([2]; first compound 2 µM): 0.777 | relative viability ([3]; first compound 0.02 µM): 0.329 | relative viability ([3]; first compound 0.6325 µM): 0.373 | relative viability ([3]; first compound 2 µM): 0.418 | relative viability ([4]; first compound 0.02 µM): 0.448 | relative viability ([4]; first compound 0.2 µM): 0.457 | relative viability ([4]; first compound 0.6325 µM): 0.376 | relative viability ([4]; first compound 2 µM): 0.242 | relative viability ([5]; first compound 0.02 µM): 0.553 | relative viability ([5]; first compound 0.2 µM): 0.533 | relative viability ([5]; first compound 0.6325 µM): 0.542 | relative viability ([5]; first compound 2 µM): 0.478 | relative viability ([6]; first compound 0.02 µM): 0.5 | relative viability ([6]; first compound 0.2 µM): 0.363 | relative viability ([6]; first compound 0.6325 µM): 0.622 | relative viability ([6]; first compound 2 µM): 0.364 | relative viability ([7]; first compound 0.02 µM): 0.321 | relative viability ([7]; first compound 0.2 µM): 0.286 | relative viability ([7]; first compound 0.6325 µM): 0.324 | relative viability ([7]; first compound 2 µM): 0.294 | relative viability ([8]; first compound 0.02 µM): 0.595 | relative viability ([8]; first compound 0.2 µM): 0.524 | relative viability ([8]; first compound 0.6325 µM): 0.605 | relative viability ([8]; first compound 2 µM): 0.561 | relative viability ([9]; first compound 0.02 µM): 0.636 | relative viability ([9]; first compound 0.6325 µM): 0.678 | relative viability ([9]; first compound 2 µM): 0.607 | relative viability ([10]; first compound 0.02 µM): 0.477 | relative viability ([10]; first compound 0.6325 µM): 0.421 | relative viability ([10]; first compound 2 µM): 0.352 | relative viability ([11]; first compound 0.02 µM): 0.757 | relative viability ([11]; first compound 0.2 µM): 0.663 | relative viability ([11]; first compound 0.6325 µM): 0.766 | relative viability ([11]; first compound 2 µM): 0.636 | relative viability ([12]; first compound 0.02 µM): 0.275 | relative viability ([12]; first compound 0.2 µM): 0.288 | relative viability ([12]; first compound 0.6325 µM): 0.345 | relative viability ([12]; first compound 2 µM): 0.376 | relative viability ([13]; first compound 0.02 µM): 0.463 | relative viability ([13]; first compound 0.2 µM): 0.39 | relative viability ([13]; first compound 0.6325 µM): 0.437 | relative viability ([13]; first compound 2 µM): 0.397 | relative viability ([14]; first compound 0.02 µM): 0.455 | relative viability ([14]; first compound 0.6325 µM): 0.49 | relative viability ([14]; first compound 2 µM): 0.469 | relative viability ([15]; first compound 0.02 µM): 0.308 | relative viability ([15]; first compound 0.2 µM): 0.292 | relative viability ([15]; first compound 0.6325 µM): 0.282 | relative viability ([15]; first compound 2 µM): 0.322 | relative viability ([16]; first compound 0.02 µM): 0.589 | relative viability ([16]; first compound 0.2 µM): 0.528 | relative viability ([16]; first compound 0.6325 µM): 0.527 | relative viability ([16]; first compound 2 µM): 0.501 | relative viability ([17]; first compound 0.02 µM): 0.22 | relative viability ([17]; first compound 0.2 µM): 0.223 | relative viability ([17]; first compound 0.6325 µM): 0.228 | relative viability ([17]; first compound 2 µM): 0.169 | relative viability ([18]; first compound 0.02 µM): 0.587 | relative viability ([18]; first compound 0.2 µM): 0.418 | relative viability ([18]; first compound 0.6325 µM): 0.603 | relative viability ([18]; first compound 2 µM): 0.46 | relative viability ([19]; first compound 0.02 µM): 0.88 | relative viability ([19]; first compound 0.6325 µM): 0.864 | relative viability ([19]; first compound 2 µM): 0.8 | relative viability ([20]; first compound 0.02 µM): 0.246 | relative viability ([20]; first compound 0.2 µM): 0.242 | relative viability ([20]; first compound 0.6325 µM): 0.214 | relative viability ([20]; first compound 2 µM): 0.246 | relative viability ([21]; first compound 0.02 µM): 0.891 | relative viability ([21]; first compound 0.2 µM): 0.797 | relative viability ([21]; first compound 0.6325 µM): 0.817 | relative viability ([21]; first compound 2 µM): 0.528 | relative viability ([22]; first compound 0.02 µM): 0.211 | relative viability ([22]; first compound 0.2 µM): 0.127 | relative viability ([22]; first compound 0.6325 µM): 0.0455 | relative viability ([22]; first compound 2 µM): 0.0398 | relative viability ([23]; first compound 0.02 µM): 0.4 | relative viability ([23]; first compound 0.2 µM): 0.289 | relative viability ([23]; first compound 0.6325 µM): 0.233 | relative viability ([23]; first compound 2 µM): 0.186
